Numbers after ± are expanded uncertainties.
Details: Liquid

COCC(C)OC(C)=O (centres undefined) [1-methoxy-2-propyl acetate]
vapor or sublimation pressure (377.95 K): 26.7 ± 0.2 kPa
vapor or sublimation pressure (389.37 K): 40 ± 0.2 kPa
vapor or sublimation pressure (398.01 K): 53.3 ± 0.2 kPa
vapor or sublimation pressure (405.04 K): 66.7 ± 0.2 kPa
vapor or sublimation pressure (411.02 K): 80 ± 0.2 kPa
vapor or sublimation pressure (416.25 K): 93.3 ± 0.3 kPa
vapor or sublimation pressure (418.18 K): 98.7 ± 0.3 kPa

COCC(C)O (centres undefined) [1-methoxy-2-propanol]
vapor or sublimation pressure (355.83 K): 26.7 ± 0.2 kPa
vapor or sublimation pressure (365.99 K): 40 ± 0.2 kPa
vapor or sublimation pressure (373.87 K): 53.3 ± 0.2 kPa
vapor or sublimation pressure (380.27 K): 66.7 ± 0.2 kPa
vapor or sublimation pressure (385.71 K): 80 ± 0.2 kPa
vapor or sublimation pressure (390.45 K): 93.3 ± 0.3 kPa
vapor or sublimation pressure (392.2 K): 98.7 ± 0.3 kPa

From the NIST ThermoML archive (doi:10.1016/j.fluid.2007.06.006)
